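A five-concentration, 48-hour dose response in 96-well plates underlies each endpoint, interpolated linearly between surrounding concentrations. TGI marks complete inhibition of growth.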
Legend:
Assay in all cases: NCI tumour cell line growth inhibition, 48 h
786-0 renal = tested on: 786-0 renal
A498 renal = tested on: A498 renal
A549 NSCLC = tested on: A549 NSCLC
ACHN renal = tested on: ACHN renal
BT-549 breast = tested on: BT-549 breast
CAKI-1 renal = tested on: CAKI-1 renal
CCRF-CEM leukemia = tested on: CCRF-CEM leukemia
COLO 205 colon = tested on: COLO 205 colon
DU-145 prostate = tested on: DU-145 prostate
EKVX NSCLC = tested on: EKVX NSCLC
HCC-2998 colon = tested on: HCC-2998 colon
HCT-116 colon = tested on: HCT-116 colon
HCT-15 colon = tested on: HCT-15 colon
HL-60(TB) leukemia = tested on: HL-60(TB) leukemia
HOP-62 NSCLC = tested on: HOP-62 NSCLC
HOP-92 NSCLC = tested on: HOP-92 NSCLC
HS 578T breast = tested on: HS 578T breast
HT29 colon = tested on: HT29 colon
IGROV1 ovarian = tested on: IGROV1 ovarian
K-562 leukemia = tested on: K-562 leukemia
KM12 colon = tested on: KM12 colon
LOX IMVI melanoma = tested on: LOX IMVI melanoma
M14 melanoma = tested on: M14 melanoma
MALME-3M melanoma = tested on: MALME-3M melanoma
MCF7 breast = tested on: MCF7 breast
MDA-MB-231 breast = tested on: MDA-MB-231 breast
MDA-MB-435 = tested on: MDA-MB-435
MDA-N = tested on: MDA-N
MOLT-4 leukemia = tested on: MOLT-4 leukemia
NCI-H226 lung = tested on: NCI-H226 lung
NCI-H23 lung = tested on: NCI-H23 lung
NCI-H460 lung = tested on: NCI-H460 lung
NCI-H522 lung = tested on: NCI-H522 lung
NCI/ADR-RES ovarian = tested on: NCI/ADR-RES ovarian
OVCAR-3 ovarian = tested on: OVCAR-3 ovarian
OVCAR-4 ovarian = tested on: OVCAR-4 ovarian
OVCAR-5 ovarian = tested on: OVCAR-5 ovarian
OVCAR-8 ovarian = tested on: OVCAR-8 ovarian
PC-3 prostate = tested on: PC-3 prostate
RPMI-8226 leukemia = tested on: RPMI-8226 leukemia
RXF 393 renal = tested on: RXF 393 renal
SF-268 CNS = tested on: SF-268 CNS
SF-295 CNS = tested on: SF-295 CNS
SF-539 CNS = tested on: SF-539 CNS
SK-MEL-2 melanoma = tested on: SK-MEL-2 melanoma
SK-MEL-28 melanoma = tested on: SK-MEL-28 melanoma
SK-MEL-5 melanoma = tested on: SK-MEL-5 melanoma
SK-OV-3 ovarian = tested on: SK-OV-3 ovarian
SN12C renal = tested on: SN12C renal
SNB-19 CNS = tested on: SNB-19 CNS
SNB-75 CNS = tested on: SNB-75 CNS
SR leukemia = tested on: SR leukemia
SW-620 colon = tested on: SW-620 colon
T-47D breast = tested on: T-47D breast
TK-10 renal = tested on: TK-10 renal
U251 CNS = tested on: U251 CNS
UACC-257 melanoma = tested on: UACC-257 melanoma
UACC-62 melanoma = tested on: UACC-62 melanoma
UO-31 renal = tested on: UO-31 renal

c1c[nH]c(C23C4C5C6C4C2C6C53)n1 (stereo not drawn)
TGI (786-0 renal): > 100 µM | TGI (A498 renal): > 100 µM | TGI (A549 NSCLC): > 100 µM | TGI (ACHN renal): > 100 µM | TGI (BT-549 breast): > 100 µM | TGI (CAKI-1 renal): > 100 µM | TGI (CCRF-CEM leukemia): > 100 µM | TGI (COLO 205 colon): > 100 µM | TGI (DU-145 prostate): > 100 µM | TGI (EKVX NSCLC): > 100 µM | TGI (HCC-2998 colon): > 100 µM | TGI (HCT-116 colon): > 100 µM | TGI (HCT-15 colon): > 100 µM | TGI (HL-60(TB) leukemia): > 100000 nM | TGI (HOP-62 NSCLC): > 100 µM | TGI (HOP-92 NSCLC): > 100 µM | TGI (HS 578T breast): > 100 µM | TGI (HT29 colon): > 100 µM | TGI (IGROV1 ovarian): > 100 µM | TGI (K-562 leukemia): > 100 µM | TGI (KM12 colon): > 100 µM | TGI (LOX IMVI melanoma): > 100 µM | TGI (M14 melanoma): > 100 µM | TGI (MALME-3M melanoma): > 100 µM | TGI (MCF7 breast): > 100 µM | TGI (MDA-MB-231 breast): > 100 µM | TGI (MDA-MB-435): > 100000 nM | TGI (MDA-N): > 100000 nM | TGI (MOLT-4 leukemia): > 100 µM | TGI (NCI-H226 lung): > 100 µM | TGI (NCI-H23 lung): > 100 µM | TGI (NCI-H460 lung): > 100 µM | TGI (NCI-H522 lung): > 100 µM | TGI (NCI/ADR-RES ovarian): > 100 µM | TGI (OVCAR-3 ovarian): > 100000 nM | TGI (OVCAR-4 ovarian): > 100 µM | TGI (OVCAR-5 ovarian): > 100 µM | TGI (OVCAR-8 ovarian): > 100 µM | TGI (PC-3 prostate): > 100 µM | TGI (RPMI-8226 leukemia): > 100 µM | TGI (RXF 393 renal): > 100 µM | TGI (SF-268 CNS): > 100 µM | TGI (SF-295 CNS): > 100 µM | TGI (SF-539 CNS): > 100 µM | TGI (SK-MEL-2 melanoma): > 100 µM | TGI (SK-MEL-28 melanoma): > 100 µM | TGI (SK-MEL-5 melanoma): > 100 µM | TGI (SK-OV-3 ovarian): > 100 µM | TGI (SN12C renal): > 100 µM | TGI (SNB-19 CNS): > 100 µM | TGI (SNB-75 CNS): > 100 µM | TGI (SR leukemia): > 100 µM | TGI (SW-620 colon): > 100 µM | TGI (T-47D breast): > 100 µM | TGI (TK-10 renal): > 100 µM | TGI (U251 CNS): > 100 µM | TGI (UACC-257 melanoma): > 100 µM | TGI (UACC-62 melanoma): > 100 µM | TGI (UO-31 renal): > 100 µM

Cc1ccc(C)c(C2NC(=O)c3ccccc3N2)c1 (stereo not drawn)
TGI (786-0 renal): > 64 µM | TGI (A498 renal): 32 µM | TGI (A549 NSCLC): > 100 µM | TGI (ACHN renal): > 89 µM | TGI (BT-549 breast): > 71.6 µM | TGI (CAKI-1 renal): 35.3 µM | TGI (CCRF-CEM leukemia): > 25.5 µM | TGI (COLO 205 colon): 7.06 µM | TGI (DU-145 prostate): > 50.9 µM | TGI (EKVX NSCLC): > 100 µM | TGI (HCC-2998 colon): 31.4 µM | TGI (HCT-116 colon): 19.8 µM | TGI (HCT-15 colon): 50.6 µM | TGI (HL-60(TB) leukemia): 560 nM | TGI (HOP-62 NSCLC): > 87.6 µM | TGI (HOP-92 NSCLC): > 100 µM | TGI (HS 578T breast): 7.73 µM | TGI (HT29 colon): > 54.2 µM | TGI (IGROV1 ovarian): > 100 µM | TGI (K-562 leukemia): > 30.1 µM | TGI (KM12 colon): > 70.8 µM | TGI (LOX IMVI melanoma): > 100 µM | TGI (M14 melanoma): 26.1 µM | TGI (MALME-3M melanoma): > 95.7 µM | TGI (MCF7 breast): > 84.5 µM | TGI (MDA-MB-231 breast): 72.7 µM | TGI (MDA-MB-435): 832 nM | TGI (MDA-N): 319 nM | TGI (MOLT-4 leukemia): 31.9 µM | TGI (NCI-H226 lung): 20.5 µM | TGI (NCI-H23 lung): > 62.1 µM | TGI (NCI-H460 lung): 34.5 µM | TGI (NCI-H522 lung): 3.52 µM | TGI (NCI/ADR-RES ovarian): 8.37 µM | TGI (OVCAR-3 ovarian): 997 nM | TGI (OVCAR-4 ovarian): > 100 µM | TGI (OVCAR-5 ovarian): > 69.7 µM | TGI (OVCAR-8 ovarian): > 79.6 µM | TGI (PC-3 prostate): 28.3 µM | TGI (RPMI-8226 leukemia): 16.4 µM | TGI (RXF 393 renal): 14.3 µM | TGI (SF-268 CNS): > 100 µM | TGI (SF-295 CNS): > 33.1 µM | TGI (SF-539 CNS): 3.07 µM | TGI (SK-MEL-2 melanoma): 72.6 µM | TGI (SK-MEL-28 melanoma): > 100 µM | TGI (SK-MEL-5 melanoma): 21.3 µM | TGI (SK-OV-3 ovarian): > 75.1 µM | TGI (SN12C renal): > 100 µM | TGI (SNB-19 CNS): > 49.5 µM | TGI (SNB-75 CNS): 15.2 µM | TGI (SR leukemia): > 27.4 µM | TGI (SW-620 colon): > 49.6 µM | TGI (T-47D breast): > 100 µM | TGI (TK-10 renal): > 100 µM | TGI (U251 CNS): 17.9 µM | TGI (UACC-257 melanoma): > 100 µM | TGI (UACC-62 melanoma): > 70.3 µM | TGI (UO-31 renal): > 100 µM

Source: PubChem BioAssay (NCI)
